pIC50: −log10 of the molar value.
Tests used:
[1] = system: Kuramochi cells; experiment: BrdU Cell Proliferation Assay; format: cell-based; conditions: read-out: BrdU - KURAMOCHI.1: IC50
Method in brief: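 Kuramochi cells were seeded at 2,000 cells/well, adhered overnight, then treated with a 10-point, 3-fold compound dilution series for 4 days. Proliferation was measured by a 1-hour BrdU pulse, anti-BrdU peroxidase colorimetric ELISA and 450 nm absorbance. Values were background-subtracted and normalized to DMSO wells.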

[2] = system: Kuramochi cells labeled with mApple-H2B; experiment: IncuCyte Cell Proliferation Assay; format: cell-based; conditions: 72 h
Method in brief: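 Cells imaged at 0 and 72 h after compound treatment (10 points, ½ log dilution, 20 μM top), with fluorescent nuclei counted. Fold change in count was normalized to DMSO wells and fitted to dose-response curves to give GI50.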

Compound	pIC50 [1]	pIC50 [2]
CNC(=O)[C@@H](NC(=O)[C@@H]1CN(C(=O)c2cnn(Cc3ccccc3)c2)CC12CN(C(=O)NC1CC1)C2)[C@@H](C)OCC1CCCCC1 [I-268, (S)-6-(1-benzyl-1H-pyrazole-4-carbonyl)-N8-((2S,3R)-3-(cyclohexylmethoxy)-1-(methylamino)-1-oxobutan-2-yl)-N2-cyclopropyl-2,6-diazaspiro[3.4]octane-2,8-dicarboxamide]	< 5.00	< 4.70
CNC(=O)[C@@H](NC(=O)[C@H]1CN(C(=O)c2cnn(Cc3ccccc3)c2)CC12CN(C(=O)[C@H]1CC1(C)C)C2)[C@@H](C)OCC1CCC(C(F)(F)F)CC1 (some centres unmarked) [I-141B]	5.30 to 6.30	4.70 to 5.30
CNC(=O)[C@@H](NC(=O)[C@@H]1CN(C(=O)c2cncs2)CC12CN(C(=O)[C@H]1CC1(C)C)C2)[C@@H](C)OCC1CCCCC1 [I-129A]	5.30 to 6.30	5.30 to 6.30
C[C@@H](OCC1CCCCC1)[C@@H](COC1CCC(F)(F)CC1)NC(=O)[C@@H]1CN(C(=O)c2cnn(Cc3ccccc3)c2)CC12CN(C(=O)[C@H]1CC1(C)C)C2 [I-271]	≥ 6.30	≥ 6.30
CC1(C)C[C@@H]1C(=O)N1CC2(CN(C(=O)c3cnn(Cc4ccccc4)c3)C[C@H]2C(=O)NCc2cccnn2)C1 [I-359]	< 5.00	< 4.70
CNC(=O)[C@@H](NC(=O)[C@@H]1CN(C(=O)c2scnc2C(C)(C)C)CC12CN(C(=O)[C@H]1CC1(C)C)C2)[C@@H](C)OCC1CCCCC1 [I-231A]	< 5.00	< 4.70
CNC(=O)[C@@H](NC(=O)[C@@H]1CN(C(=O)c2sc(C)nc2C)CC12CN(C(=O)[C@H]1CC1(C)C)C2)[C@@H](C)OCC1CCCCC1 [I-213A]	5.30 to 6.30	5.30 to 6.30
C[C@@H](OCC1CCOCC1)[C@H](NC(=O)[C@@H]1CN(C(=O)c2cncs2)CC12CN(C(=O)C(C)(C)C1CC1)C2)C(C)(C)O [I-341]	< 5.00	< 4.70
CNC(=O)[C@@H](NC(=O)[C@@H]1CN(C(=O)c2cnn(Cc3ccccc3)c2)CC12CN(C(=O)[C@H]1CC1(C)C)C2)[C@@H](C)OCC1C[C@@H](C)C[C@@H](C)C1 (some centres unmarked) [I-249]	5.30 to 6.30	5.30 to 6.30
C[C@@H](OCC1CCCCC1)[C@H](NC(=O)[C@@H]1CN(C(=O)c2cnn(Cc3ccccc3)c2)CC12CN(C(=O)[C@H]1CC1(C)C)C2)C(C)(C)O [I-281]	5.30 to 6.30	≥ 6.30
COC[C@H]1CCCN(C(=O)[C@@H](NC(=O)[C@@H]2CN(C(=O)c3cncs3)CC23CN(C(=O)[C@H]2CC2(C)C)C3)[C@@H](C)O[C@@H](C)C2CCCCC2)C1 [I-369]	5.30 to 6.30	5.30 to 6.30
C[C@@H](OCC1CCCCC1)[C@H](NC(=O)[C@@H]1CN(C(=O)c2cnn(Cc3ccccc3)c2)CC12CN(C(=O)[C@H]1CC1(C)C)C2)C(=O)N1CCC(F)(F)CC1 [I-149A]	≥ 6.30	≥ 6.30
CNC(=O)[C@@H](NC(=O)[C@@H]1CN(C(=O)c2cnn(Cc3ccccc3)c2)CC12CN(CC(=O)O)C2)[C@@H](C)OCC1CCCCC1 [I-294, 2-((S)-6-(1-benzyl-1H-pyrazole-4-carbonyl)-8-(((2S,3R)-3-(cyclohexylmethoxy)-1-(methylamino)-1-oxobutan-2-yl)carbamoyl)-2,6-diazaspiro[3.4]octan-2-yl)acetic acid]	< 5.00	< 4.70
CNC(=O)[C@@H](NC(=O)[C@@H]1CN(C(=O)c2cnn(Cc3ccccc3)c2)CC12CN(C(=O)C(C)(C)C1CC1)C2)[C@@H](C)OCc1ccccc1 [I-276]	< 5.00	< 4.70
CNC(=O)[C@@H](NC(=O)[C@@H]1CN(C(=O)c2cnn(Cc3ccccc3)c2)CC12CN(C(=O)[C@H]1CC1(C)C)C2)[C@@H](C)OCC(C)(C)C [I-130A]	5.00 to 5.30	4.70 to 5.30
CNC(=O)[C@@H](NC(=O)[C@@H]1CN(C(=O)c2cncs2)CC12CN(C(=O)[C@H]1CC1(C)C)C2)C1(OCC2CCCCC2)CC1 [I-401]	5.30 to 6.30	5.30 to 6.30

Compound	pIC50 [1]	pIC50 [2]
CNC(=O)[C@@H](NC(=O)[C@H]1CN(C(=O)c2cnn(Cc3ccccc3)c2)CC12CN(C(=O)[C@H]1CC1(C)C)C2)[C@@H](C)OCC1CCCC1 [I-110B]	5.00 to 5.30	4.70 to 5.30
CC1(C)C[C@@H]1C(=O)N1CC2(CN(C(=O)c3cnn(Cc4ccccc4)c3)C[C@H]2C(=O)N[C@@H]2CCN(c3ccccc3)C2)C1 [I-207]	≥ 6.30	4.70 to 5.30
C[C@@H](OCC1CCC(F)(F)CC1)[C@H](NC(=O)[C@@H]1CN(C(=O)c2cncs2)CC12CN(C(=O)[C@H]1CC1(C)C)C2)C(=O)N1CCC[C@H](COC(F)(F)F)C1 [I-326]	≥ 6.30	≥ 6.30
CNC(=O)[C@@H](NC(=O)[C@@H]1CN(C(=O)c2cncs2)CC12CN(C(=O)[C@H]1CC1(C)C)C2)[C@@H](C)OC(C)C1CCCCC1 (some centres unmarked) [I-279]	5.30 to 6.30	5.30 to 6.30
COC[C@H]1CCCN(C(=O)[C@H](C)NC(=O)[C@@H]2CN(C(=O)c3cncs3)CC23CN(C(=O)[C@H]2CC2(C)C)C3)C1 [I-325]	< 5.00	< 4.70
CNC(=O)[C@@H](NC(=O)[C@@H]1CN(C(=O)c2cnn(Cc3ccccc3)c2)CC12CN(C(=O)[C@H]1CC1(C)C)C2)[C@@H](C)N(CC1CCCCC1)C(C)=O [I-273, (S)-6-(1-benzyl-1H-pyrazole-4-carbonyl)-N-((2S,3R)-3-(N-(cyclohexylmethyl)acetamido)-1-(methylamino)-1-oxobutan-2-yl)-2-((S)-2,2-dimethylcyclopropane-1-carbonyl)-2,6-diazaspiro[3.4]octane-8-carboxamide]	< 5.00	< 4.70
CNC(=O)[C@@H](NC(=O)[C@@H]1CN(C(=O)c2cncs2)CC12CN(C(=O)[C@H]1CC1(C)C)C2)[C@@H](C)OCC12CCC(CC1)OC2 [I-342]	5.30 to 6.30	5.30 to 6.30
C[C@@H](OCC1CCC(F)(F)CC1)[C@H](NC(=O)[C@@H]1CN(C(=O)c2cnn(Cc3ccc(F)cc3)c2)CC12CN(C(=O)[C@H]1CC1(C)C)C2)C(N)=O [I-203]	5.30 to 6.30	5.30 to 6.30
COC[C@H]1CCCN(C(=O)[C@@H](NC(=O)[C@@H]2CN(C(=O)c3cncs3)CC23CN(C(=O)[C@H]2CC2(C)C)C3)[C@@H](C)OCc2cccc(F)c2)C1 [I-322]	5.30 to 6.30	5.30 to 6.30
C[C@@H](OCC1CCC(F)(F)CC1)[C@H](NC(=O)[C@@H]1CN(C(=O)c2cncs2)CC12CN(C(=O)[C@H]1CC1(C)C)C2)C(=O)N1CCC(C)(C)CC1 [I-386]	≥ 6.30	≥ 6.30
C[C@@H](OCC1CCOCC1)[C@@H](COC(F)(F)F)NC(=O)[C@@H]1CN(C(=O)c2cncs2)CC12CN(C(=O)[C@H]1CC1(C)C)C2 [I-428]	< 5.00	< 4.70
CNC(=O)[C@@H](NC(=O)[C@H]1CN(C(=O)c2cnc(C)s2)CC12CN(C(=O)[C@H]1CC1(C)C)C2)[C@@H](C)OCC1CCCCC1 [I-156B]	< 5.00	< 4.70
CNC(=O)[C@@H](NC(=O)[C@@H]1CN(C(=O)c2sc(Cl)nc2Cl)CC12CN(C(=O)[C@H]1CC1(C)C)C2)[C@@H](C)OCC1CCCCC1 [I-232A]	5.30 to 6.30	5.30 to 6.30
C[C@@H](OCC1CCCCC1)[C@H](NC(=O)[C@@H]1CN(C(=O)c2cncs2)CC12CN(C(=O)[C@H]1CC1(C)C)C2)C(=O)N1CCNCC1 [I-328]	5.30 to 6.30	5.30 to 6.30
CNC(=O)[C@@H](NC(=O)[C@@H]1CN(C(=O)c2cnn(Cc3ccccc3)c2)CC12CN(C(=O)[C@H]1CC1(C)C)C2)[C@@H](C)OCc1ccc(Br)cc1 [I-263]	5.30 to 6.30	5.30 to 6.30

Reference: patent publication US12065445B2, “CDK2 inhibitors and methods of using the same” (Cedilla Therapeutics, Inc., priority 2021, dated 2024)
